# Test results from PubChem BioAssay (NCI).
#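 Five concentrations, 48 hours, 96-well plates. The concentration for 50% growth inhibition is given as GI50. TGI: total growth inhibition.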
# Legend:
# Test in all cases: inhibition of tumour cell growth, NCI panel, 48 h
# UO-31 renal = tested on: UO-31 renal
# MDA-MB-231 breast = tested on: MDA-MB-231 breast
# 786-0 renal = tested on: 786-0 renal
# K-562 leukemia = tested on: K-562 leukemia
# CAKI-1 renal = tested on: CAKI-1 renal
# OVCAR-5 ovarian = tested on: OVCAR-5 ovarian
# MDA-MB-435 = tested on: MDA-MB-435
# OVCAR-3 ovarian = tested on: OVCAR-3 ovarian
# SNB-75 CNS = tested on: SNB-75 CNS
# PC-3 prostate = tested on: PC-3 prostate
# M14 melanoma = tested on: M14 melanoma
# SW-620 colon = tested on: SW-620 colon
# SF-295 CNS = tested on: SF-295 CNS
# DU-145 prostate = tested on: DU-145 prostate
# SN12C renal = tested on: SN12C renal
# OVCAR-8 ovarian = tested on: OVCAR-8 ovarian
# NCI-H23 lung = tested on: NCI-H23 lung
# A498 renal = tested on: A498 renal
# COLO 205 colon = tested on: COLO 205 colon
# UACC-62 melanoma = tested on: UACC-62 melanoma
# UACC-257 melanoma = tested on: UACC-257 melanoma
# HCT-15 colon = tested on: HCT-15 colon
# BT-549 breast = tested on: BT-549 breast
# HL-60(TB) leukemia = tested on: HL-60(TB) leukemia
# OVCAR-4 ovarian = tested on: OVCAR-4 ovarian
# SK-MEL-28 melanoma = tested on: SK-MEL-28 melanoma
# RXF 393 renal = tested on: RXF 393 renal
# NCI-H460 lung = tested on: NCI-H460 lung
# SR leukemia = tested on: SR leukemia
# A549 NSCLC = tested on: A549 NSCLC
# U251 CNS = tested on: U251 CNS
# LOX IMVI melanoma = tested on: LOX IMVI melanoma
# HT29 colon = tested on: HT29 colon
# NCI-H226 lung = tested on: NCI-H226 lung
# TK-10 renal = tested on: TK-10 renal
# SF-268 CNS = tested on: SF-268 CNS
# MALME-3M melanoma = tested on: MALME-3M melanoma
# MOLT-4 leukemia = tested on: MOLT-4 leukemia
# CCRF-CEM leukemia = tested on: CCRF-CEM leukemia
# MCF7 breast = tested on: MCF7 breast
# IGROV1 ovarian = tested on: IGROV1 ovarian
# HOP-62 NSCLC = tested on: HOP-62 NSCLC
# NCI/ADR-RES ovarian = tested on: NCI/ADR-RES ovarian
# SK-MEL-2 melanoma = tested on: SK-MEL-2 melanoma
# HCT-116 colon = tested on: HCT-116 colon
# NCI-H522 lung = tested on: NCI-H522 lung
# ACHN renal = tested on: ACHN renal
# SK-OV-3 ovarian = tested on: SK-OV-3 ovarian
# KM12 colon = tested on: KM12 colon
# HCC-2998 colon = tested on: HCC-2998 colon
# T-47D breast = tested on: T-47D breast
# HOP-92 NSCLC = tested on: HOP-92 NSCLC
# SK-MEL-5 melanoma = tested on: SK-MEL-5 melanoma
# SF-539 CNS = tested on: SF-539 CNS
# RPMI-8226 leukemia = tested on: RPMI-8226 leukemia
# HS 578T breast = tested on: HS 578T breast
# SNB-19 CNS = tested on: SNB-19 CNS
structure (smiles),measurement,setting,value
CCCOC(=O)c1ccc2c(c1)[N+](=O)C(C(=O)c1ccccc1)=C(C(F)(F)F)[N+]2=O,GI50,UO-31 renal,1670 nM
same,TGI,UO-31 renal,3.06 µM
same,GI50,MDA-MB-231 breast,1910 nM
same,TGI,MDA-MB-231 breast,3.45 µM
same,GI50,786-0 renal,1830 nM
same,TGI,786-0 renal,3.32 µM
same,GI50,K-562 leukemia,2100 nM
same,TGI,K-562 leukemia,4.12 µM
same,GI50,CAKI-1 renal,1780 nM
same,TGI,CAKI-1 renal,3.37 µM
same,GI50,OVCAR-5 ovarian,1770 nM
same,TGI,OVCAR-5 ovarian,3.31 µM
same,GI50,MDA-MB-435,1710 nM
same,TGI,MDA-MB-435,3.26 µM
same,GI50,OVCAR-3 ovarian,1740 nM
same,TGI,OVCAR-3 ovarian,3.17 µM
same,GI50,SNB-75 CNS,1490 nM
same,TGI,SNB-75 CNS,3000 nM
same,GI50,PC-3 prostate,1550 nM
same,TGI,PC-3 prostate,2940 nM
same,GI50,M14 melanoma,1820 nM
same,TGI,M14 melanoma,3.37 µM
same,GI50,SW-620 colon,1840 nM
same,TGI,SW-620 colon,3.68 µM
same,GI50,SF-295 CNS,1680 nM
same,TGI,SF-295 CNS,3.21 µM
same,GI50,DU-145 prostate,1840 nM
same,TGI,DU-145 prostate,3.31 µM
same,GI50,SN12C renal,1790 nM
same,TGI,SN12C renal,3.36 µM
same,GI50,OVCAR-8 ovarian,1840 nM
same,TGI,OVCAR-8 ovarian,3.55 µM
same,GI50,NCI-H23 lung,1780 nM
same,TGI,NCI-H23 lung,3.38 µM
same,GI50,A498 renal,1300 nM
same,TGI,A498 renal,2830 nM
same,GI50,COLO 205 colon,2090 nM
same,TGI,COLO 205 colon,3.85 µM
same,GI50,UACC-62 melanoma,1760 nM
same,TGI,UACC-62 melanoma,3.26 µM
same,GI50,UACC-257 melanoma,1750 nM
same,TGI,UACC-257 melanoma,3.22 µM
same,GI50,HCT-15 colon,1630 nM
same,TGI,HCT-15 colon,3.3 µM
same,GI50,BT-549 breast,1790 nM
same,TGI,BT-549 breast,3.27 µM
same,GI50,HL-60(TB) leukemia,1960 nM
same,TGI,HL-60(TB) leukemia,3.88 µM
same,GI50,OVCAR-4 ovarian,1740 nM
same,TGI,OVCAR-4 ovarian,3.36 µM
same,GI50,SK-MEL-28 melanoma,1850 nM
same,TGI,SK-MEL-28 melanoma,3.51 µM
same,GI50,RXF 393 renal,1700 nM
same,TGI,RXF 393 renal,3.25 µM
same,GI50,NCI-H460 lung,2040 nM
same,TGI,NCI-H460 lung,4.28 µM
same,GI50,SR leukemia,1880 nM
same,TGI,SR leukemia,4.85 µM
same,GI50,A549 NSCLC,1670 nM
same,TGI,A549 NSCLC,3.33 µM
same,GI50,U251 CNS,1760 nM
same,TGI,U251 CNS,3.2 µM
same,GI50,LOX IMVI melanoma,1720 nM
same,TGI,LOX IMVI melanoma,3.35 µM
same,GI50,HT29 colon,2110 nM
same,TGI,HT29 colon,4.04 µM
same,GI50,NCI-H226 lung,2060 nM
same,TGI,NCI-H226 lung,4.69 µM
same,GI50,TK-10 renal,1590 nM
same,TGI,TK-10 renal,2990 nM
same,GI50,SF-268 CNS,1780 nM
same,TGI,SF-268 CNS,3.48 µM
same,GI50,MALME-3M melanoma,1950 nM
same,TGI,MALME-3M melanoma,3.64 µM
same,GI50,MOLT-4 leukemia,2050 nM
same,TGI,MOLT-4 leukemia,4.09 µM
same,GI50,CCRF-CEM leukemia,1850 nM
same,TGI,CCRF-CEM leukemia,3.98 µM
same,GI50,MCF7 breast,1640 nM
same,TGI,MCF7 breast,3.33 µM
same,GI50,IGROV1 ovarian,1830 nM
same,TGI,IGROV1 ovarian,3.61 µM
same,GI50,HOP-62 NSCLC,1800 nM
same,TGI,HOP-62 NSCLC,3.37 µM
same,GI50,NCI/ADR-RES ovarian,1890 nM
same,TGI,NCI/ADR-RES ovarian,3.69 µM
same,GI50,SK-MEL-2 melanoma,1840 nM
same,TGI,SK-MEL-2 melanoma,3.52 µM
same,GI50,HCT-116 colon,1700 nM
same,TGI,HCT-116 colon,3.36 µM
same,GI50,NCI-H522 lung,1800 nM
same,TGI,NCI-H522 lung,3.5 µM
same,GI50,ACHN renal,1780 nM
same,TGI,ACHN renal,3.26 µM
same,GI50,SK-OV-3 ovarian,1890 nM
same,TGI,SK-OV-3 ovarian,3.33 µM
same,GI50,KM12 colon,1810 nM
same,TGI,KM12 colon,3.44 µM
same,GI50,HCC-2998 colon,1810 nM
same,TGI,HCC-2998 colon,3.29 µM
same,GI50,T-47D breast,1800 nM
same,TGI,T-47D breast,3.69 µM
same,GI50,HOP-92 NSCLC,1130 nM
same,TGI,HOP-92 NSCLC,2430 nM
same,GI50,SK-MEL-5 melanoma,1650 nM
same,TGI,SK-MEL-5 melanoma,3.11 µM
same,GI50,SF-539 CNS,1790 nM
same,TGI,SF-539 CNS,3.21 µM
same,GI50,RPMI-8226 leukemia,1940 nM
same,TGI,RPMI-8226 leukemia,4.11 µM
same,GI50,HS 578T breast,2010 nM
same,TGI,HS 578T breast,4.53 µM
same,GI50,SNB-19 CNS,1750 nM
same,TGI,SNB-19 CNS,3.22 µM
